Experimental data: patent publication US20250289793A1, “MACROCYCLIC INHIBITORS OF ATP CITRATE LYASE” (Esperion Therapeutics, Inc., priority 2022, published 2025)
Where two headings read alike, the source gives them in different places.

What was measured:
[1] = from COc1c(Cl)cc(C(=O)O)cc1S(=O)(=O)Cc1cc(-c2ccccc2OCCN)c(F)cc1F; amide bond; 15-membered ring; T3P/DIPEA; DMF; 48.0 mM; 21.0 h
[2] = 15-membered ring
ACLY [3] = molecular target: T1, ACLY (Homo sapiens (Human), UniProt P53396); assay: InCell Pulse assay (permeate HEK293 cells, bind to and stabilize ACLY); format: cell-based; details: HEK293 cells transfected with pICP-ACLY(FL)-ePL; 1 hour at 37° C., 55° C. heat pulse 10 minutes; read-out: InCell Pulse IC50 GMean
In short: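 HEK293 cells transiently expressing full-length ACLY-ePL were exposed in OptiMEM to 11-point, 3-fold compound dilutions for 1 h at 37 °C, heat-pulsed 10 min at 55 °C, then lysed for enzyme-fragment complementation luminescence. Four-parameter fit, normalised to 0.5% DMSO and 1 μM NDI-094311.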

[4] = molecular target: Recombinant human ACLY full length protein (Homo sapiens (Human), UniProt P53396); assay: hACLY ADP-Glo activity assay; format: biochemical; details: 0.5 nM ACLY; 15 μM sodium citrate, 1 μM coenzyme A, 80 μM ATP; ADP formed, luminescence; read-out: ADP-Glo IC50 GMean
Experimental: Compounds of the disclosure were evaluated for their efficacy in inhibiting hACLY using an ADP-Glo™ assays that measure ADP formed from the enzymatic activity of hACLY.
Test compounds were 3-fold serially diluted in DMSO over 11-point concentration range and dispensed onto a 384-well plate. Recombinant human ACLY full length protein was purified. Concentrations of ACLY protein, sodium citrate, coenzyme A, and ATP in the reaction were optimized for standardized homogenous enzyme assay using ADP-Glo™ Kinase (Promega Inc.). The assay measured ADP formed from the enzymatic reaction.
The reaction buffer consisted of the assay buffer (50 mM HEPES pH 8.0, 10 mM MgCl2, 4 mM 1,4-Dithiothreitol, 0.01% Brij® 35).
ACLY protein (0.5 nM) was added to the prepared reaction buffer, and the mixture was dispensed into the assay plate and incubated for 30 minutes at room temperature. Next, 15 μM sodium citrate, 1 μM coenzyme A, and 80 μM ATP were added into the assay plate and incubated for 60 minutes at room temperature. The final reaction volume for each well was 5 μL.
5 μL of ADP-Glo™ reagent was added, and the mixture was incubated for 40 minutes at room temperature. 10 μl ADP-Glo™ detection reagent was added, and the mixture was incubated for 30 minutes at room temperature. Luminescence was determined using EnVision microplate reader with ultra-luminescence module (Perkin Elmer Inc). Concentration-response curve-fitting and IC50 determination was performed using Xlfit Software (version 5.5.0) with a four-parameter logistic regression fit model.

HepG2 cells = assay: Fatty acid synthesis (FAS) assay in HepG2 cells; format: cell-based; details: Homo sapiens, 1.5 h, 14C-citrate 50 μM, 90 min, read-out: FAS IC50 GMean
Experimental: HepG2 cells were seeded into white clear-bottom 96-well plates (50,000/well) coated with collagen and incubated at 37° C. for 16-24 hours. Thereafter the plates were washed once with 100 μL PBS (+CaCl2+MgCl2) and 50 μL assay medium ([…] containing 11 mM glucose, 10 mM HEPES and 1 nM Insulin) per well was added. Test substances in assay medium were added (10 μL, 0.5% DMSO) and incubated for 20 min at 37° C. After that 10 μL assay medium containing ^14C-citrate (final concentration 50 μM) and PrestoBlue reagent (lx final concentration; ThermoFisher) were added and incubated for 90 min (37° C., 5% CO2). Cell viability was measured (Multiskan FC, microplate reader, absorbance 570 nm). Medium was removed by inverting the plate and cells were washed once with 100 μL ice-cold PBS. Cells were lysed with 50 μL lysis buffer (0.1 N NaOH, 0.1% Triton X-100) and plate was sealed with Tape Pads and vortexed. For the saponification reaction plates were incubated for 16-24 hours at 80° C. Seals were removed and 200 μL 0.1 N HCl was added for neutralisation of the pH. 150 μL from each well was transferred into the corresponding wells of a 96-well Flash plate (Perkin Elmer) and sealed with TopSeal A (Perkin Elmer). Plates were incubated for 4 h at 70° C., and for 1 h at room temperature in the dark. Signal of ^14C radioactivity was measured (TopCount). As a positive control 5 mM unlabelled citrate or C75 (Sigma, C5490) was applied.

ACLY [5] = molecular target: T1, ACLY; assay: Human ACLY (hACLY) RF/MS activity assay; format: biochemical; details: 1 nM hACLY; 30 min pre-incubation; 15 μM Coenzyme A, 50 μM ATP, 50 μM citrate; CoA to Acetyl-CoA by RF/MS; read-out: RFMS IC50 GMean
In short: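 RapidFire MS read CoA-to-acetyl-CoA conversion as a substrate/product ratio after 30 min at RT (20° C) with final 15 μM CoA, 50 μM ATP, 50 μM citrate. Before substrate addition, 1 nM enzyme sat 30 min with compound (top 10 μM, two-fold dilutions; 1% DMSO) in pH 8.0 Hepes/MgCl2/NaCl/DTT buffer.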

T1 sequence (P53396 whole entry, the tested form may be a part): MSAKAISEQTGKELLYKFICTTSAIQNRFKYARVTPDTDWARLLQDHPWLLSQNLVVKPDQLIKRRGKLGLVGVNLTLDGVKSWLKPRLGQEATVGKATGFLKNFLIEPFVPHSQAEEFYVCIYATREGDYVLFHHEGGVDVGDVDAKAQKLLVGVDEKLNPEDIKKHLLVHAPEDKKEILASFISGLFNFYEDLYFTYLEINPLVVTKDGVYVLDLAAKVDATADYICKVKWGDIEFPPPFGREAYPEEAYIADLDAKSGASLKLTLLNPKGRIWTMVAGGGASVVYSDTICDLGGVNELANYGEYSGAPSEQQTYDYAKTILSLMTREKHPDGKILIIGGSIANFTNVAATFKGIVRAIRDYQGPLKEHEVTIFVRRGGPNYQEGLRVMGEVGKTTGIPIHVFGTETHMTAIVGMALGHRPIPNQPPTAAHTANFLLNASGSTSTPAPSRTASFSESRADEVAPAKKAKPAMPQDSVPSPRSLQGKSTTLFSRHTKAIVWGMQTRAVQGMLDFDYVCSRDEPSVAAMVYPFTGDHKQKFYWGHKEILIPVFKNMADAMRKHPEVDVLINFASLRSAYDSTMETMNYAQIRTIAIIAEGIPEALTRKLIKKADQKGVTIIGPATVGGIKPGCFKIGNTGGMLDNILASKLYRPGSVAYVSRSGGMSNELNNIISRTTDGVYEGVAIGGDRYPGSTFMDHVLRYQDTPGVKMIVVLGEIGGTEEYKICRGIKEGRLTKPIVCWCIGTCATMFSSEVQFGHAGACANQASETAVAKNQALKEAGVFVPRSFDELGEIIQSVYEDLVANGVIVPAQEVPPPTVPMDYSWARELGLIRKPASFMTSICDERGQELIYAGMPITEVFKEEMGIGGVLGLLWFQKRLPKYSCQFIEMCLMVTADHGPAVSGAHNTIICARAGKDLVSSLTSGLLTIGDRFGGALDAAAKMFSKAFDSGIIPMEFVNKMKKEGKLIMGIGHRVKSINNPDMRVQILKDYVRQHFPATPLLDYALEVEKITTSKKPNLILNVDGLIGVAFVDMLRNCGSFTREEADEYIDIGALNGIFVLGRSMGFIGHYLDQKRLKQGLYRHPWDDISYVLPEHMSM
Sequence of Recombinant human ACLY full length protein (P53396 whole entry): as the sequence (P53396 whole entry, the tested form may be a part) above

| Compound | IC50 (ACLY [3]) | IC50 [4] | IC50 (HepG2 cells) | IC50 (ACLY [5]) | ring closure, crude yield [1] | ring closure, yield after HPLC ([2]; from COc1c(Cl)cc(C(=O)O)cc1S(=O)(=O)Nc1cc(-c2ccccc2OCCO)c(F)cc1F, ester bond, 2,4,6-trichlorobenzoyl chloride/DIEA/DMAP, THF, 13.1 mM, 65.0 °C, 4.0 h) | ring closure, yield after HPLC ([2]; from 3-[[5-[2-(2-aminoethoxy)phenyl]-2,4-difluoro-phenyl]sulfamoyl]-5-chloro-4-(difluoromethoxy)benzoic acid·HCl, amide bond, T3P/DIPEA, DMF, 18.1 mM) |
| --- | --- | --- | --- | --- | --- | --- | --- |
| COc1c(Cl)cc2cc1S(=O)(=O)Cc1cc(c(F)cc1F)-c1ccccc1OCCNC2=O | – | – | – | – | 81% | – | – |
| COc1c(Cl)cc2cc1S(=O)(=O)Nc1cc(c(F)cc1F)-c1ccccc1OCCOC2=O | – | – | – | – | – | 18% | – |
| O=C1NCCOc2ccccc2-c2cc(c(F)cc2F)NS(=O)(=O)c2cc1cc(Cl)c2OC(F)F [Compound 15, 15-chloro-16-(difluoromethoxy)-21,23-difluoro-8-oxa-18lambda6-thia-11,19-diazatetracyclo[18.3.1.1^13,17.0^2,7]pentacosa-1(24),2,4,6,13,15,17(25),20,22-nonaene-12,18,18-trione] | ≥ 50000 nM | ≥ 1000 nM | 2000 to 10000 nM | ≥ 10000 nM | – | – | 48% |
| C[C@H]1COc2ccccc2-c2cc(c(F)cc2F)NS(=O)(=O)c2cc(cc(Cl)c2O)C(=O)N1 [Compound 17, (10S)-15-chloro-21,23-difluoro-16-hydroxy-10-methyl-8-oxa-18lambda6-thia-11,19-diazatetracyclo[18.3.1.1^13,17.0^2,7]pentacosa-1(24),2,4,6,13,15,17(25),20,22-nonaene-12,18,18-trione] | ≥ 50000 nM | 10 to 1000 nM | ≥ 50000 nM | 100 to 10000 nM | – | – | – |

More lines, main results first:

| IC50 (ACLY [3]) | IC50 [4] | IC50 (HepG2 cells) | IC50 (ACLY [5]) | Compound | ring closure, crude yield [1] | ring closure, yield after HPLC ([2]; from COc1c(Cl)cc(C(=O)O)cc1S(=O)(=O)Nc1cc(-c2ccccc2OCCO)c(F)cc1F, ester bond, 2,4,6-trichlorobenzoyl chloride/DIEA/DMAP, THF, 13.1 mM, 65.0 °C, 4.0 h) | ring closure, yield after HPLC ([2]; from 3-[[5-[2-(2-aminoethoxy)phenyl]-2,4-difluoro-phenyl]sulfamoyl]-5-chloro-4-(difluoromethoxy)benzoic acid·HCl, amide bond, T3P/DIPEA, DMF, 18.1 mM) |
| --- | --- | --- | --- | --- | --- | --- | --- |
| < 300 nM | 1 to 10 nM | 2000 to 10000 nM | 20 to 100 nM | CN1CCCc2ccccc2-c2cc(c(F)cc2F)NS(=O)(=O)c2cc(cc(Cl)c2O)C1=O [Compound 10, 15-chloro-21,23-difluoro-16-hydroxy-11-methyl-18lambda6-thia-11,19-diazatetracyclo[18.3.1.1^13,17.0^2,7]pentacosa-1(24),2,4,6,13,15,17(25),20,22-nonaene-12,18,18-trione] | – | – | – |
| < 300 nM | < 1 nM | < 2000 nM | 20 to 100 nM | O=C1OCCCc2ccccc2-c2cc(c(F)cc2F)NS(=O)(=O)c2cc1cc(Cl)c2O [Compound 16, 15-chloro-21,23-difluoro-16-hydroxy-11-oxa-18lambda6-thia-19-azatetracyclo[18.3.1.1^13,17.0^2,7]pentacosa-1(24),2,4,6,13,15,17(25),20,22-nonaene-12,18,18-trione] | – | – | – |
| 300 to 1000 nM | 1 to 10 nM | 2000 to 10000 nM | 20 to 100 nM | O=C1OCCOc2cc(Cl)ccc2-c2cc(c(F)cc2F)NS(=O)(=O)c2cc1cc(Cl)c2O [Compound 18, 5,15-dichloro-21,23-difluoro-16-hydroxy-8,11-dioxa-18lambda6-thia-19-azatetracyclo[18.3.1.1^13,17.0^2,7]pentacosa-1(24),2,4,6,13,15,17(25),20,22-nonaene-12,18,18-trione] | – | – | – |
